In publication PMC2812908 (Letters in drug design & discovery, 2009):

Molecular target: Aβ(1–40) fibrils (Homo sapiens, UniProt P05067)
Test: radioligand displacement of [3H]Chrysamine-G, filtration assay
Assay type: binding

Chain of Aβ(1–40) fibrils (P05067 672-711): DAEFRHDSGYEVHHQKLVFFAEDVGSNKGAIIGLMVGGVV

Row | Ki [nM] | SMILES
1 | 21 | COc1cc(/C=C/c2ccc(/C=C/c3ccc(O)c(O)c3)cc2)ccc1O [X:034-3-OMe1, (E,E)-1-(3’,4’-dihydroxystyryl)-4-(3’-methoxy-4’hydroxystyryl)benzene]
2 | 0.13 | O=C(O)c1cc(/C=C/C=C/c2ccc(/C=C/C=C/c3ccc(O)c(C(=O)O)c3)cc2)ccc1O [X:EE:B34, 1,4-bis[(1E,3E)-4-(3’-carboxy-4’-hydroxyphenyl)-1,3-butadienyl]-benzene]
